# Data as given in US12116388B2, “Amylin receptor agonists” (Novo Nordisk A/S, priority 2022, dated 2024).
# Starred links: 1 amine or outer side, 2 acyl side, 3 side chain; linkers in the order of their positions; H or OH if unused. Residues, ends and D or L forms follow the SMILES beside them. Groups on a side chain read outwards from the residue. *: point of attachment. C20 diacid = O=C(O)CCCCCCCCCCCCCCCCCCC(=O)*; C18 diacid = O=C(O)CCCCCCCCCCCCCCCCC(=O)*; γGlu = O=C(O)[C@H](CCC(=O)[*:2])N[*:1]
# How the values were obtained:
# [1] = target: T1, human amylin receptor (hAMYR3) (Homo sapiens, UniProt O60896+P30988); test: Human amylin receptor (hAMYR3) in vitro potency assay, CRE-luciferase reporter in BHK cells; format: cell-based; settings: BHK hAMYR3/CRE-Luc cells, 3 hours incubation, assay buffer with 1% ovalbumin
# T1 construct: host or cells: BHK (Baby Hamster Kidney), Hollex-1 cell line further transfected with RAMP3
# T1 sequence (O60896 24-148, one chain of several): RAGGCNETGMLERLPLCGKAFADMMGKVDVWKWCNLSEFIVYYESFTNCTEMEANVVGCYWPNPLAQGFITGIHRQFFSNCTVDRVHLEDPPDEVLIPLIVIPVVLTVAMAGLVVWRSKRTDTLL
# How it was run: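 Luminescence from a CRE-driven luciferase reporter reflects cAMP-mediated receptor activation. Peptides were serially diluted (7 concentrations, 7-fold steps, typically starting near 10 nM) in buffer with 1% ovalbumin and applied for 3 h at 37 °C to BHK cells co-expressing calcitonin receptor (a) and RAMP3.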
# [2] = target: T2, human calcitonin receptor (hCTR) (Homo sapiens, UniProt P30988); test: Human calcitonin receptor (hCTR) in vitro potency assay, CRE-luciferase reporter in BHK cells; format: cell-based; settings: BHK hCTR/CRE-Luc cells, 3 hours incubation, assay buffer with 1% ovalbumin; read-out: hCalcR potency, EC50
# T2 construct: host or cells: BHK (Baby Hamster Kidney), Hollex-1 cell line
# T2 sequence (P30988 25-474): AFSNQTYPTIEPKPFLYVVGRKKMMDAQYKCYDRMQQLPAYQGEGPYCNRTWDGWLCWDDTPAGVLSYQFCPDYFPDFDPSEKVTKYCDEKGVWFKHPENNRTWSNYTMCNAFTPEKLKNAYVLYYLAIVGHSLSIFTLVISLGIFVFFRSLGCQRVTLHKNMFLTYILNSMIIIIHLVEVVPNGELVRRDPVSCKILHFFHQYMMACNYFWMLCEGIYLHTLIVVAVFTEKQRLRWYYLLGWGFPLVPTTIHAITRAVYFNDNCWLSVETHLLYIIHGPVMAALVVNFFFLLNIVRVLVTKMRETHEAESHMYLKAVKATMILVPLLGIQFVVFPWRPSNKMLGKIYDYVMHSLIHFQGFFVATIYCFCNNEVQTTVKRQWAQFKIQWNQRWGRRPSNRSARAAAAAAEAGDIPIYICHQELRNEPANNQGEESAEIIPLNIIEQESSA
# How it was run: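 Luciferase signal from a CRE reporter served as the cAMP read-out after 3 h, 37 °C exposure to compound. Cells were stably transfected BHK expressing hCTR, and the buffer was phenol-red-free DMEM with 10 mM HEPES and 1% ovalbumin. Compounds were tested as 7-point, 7-fold dilutions, often from about 10 nM.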
EC50 [1],EC50 [2],Compound
1.05 pM,1.41 pM,"CC[C@H](C)[C@H](NC(=O)[C@H](C)NC(=O)CNC(=O)[C@H](Cc1ccccc1)NC(=O)[C@@H]1CCCN1C(=O)[C@H](CC(=O)O)NC(=O)[C@H](CO)NC(=O)[C@H](CO)NC(=O)[C@H](Cc1c[nH]cn1)NC(=O)[C@H](Cc1c[nH]cn1)NC(=O)[C@H](CC(C)C)NC(=O)[C@H](Cc1ccccc1)NC(=O)[C@H](CCC(=O)O)NC(=O)[C@H](C)NC(=O)[C@H](CC(C)C)NC(=O)[C@H](CCCNC(=N)N)NC(=O)[C@H](C)NC(=O)[C@@H](NC(=O)[C@H](CCC(N)=O)NC(=O)[C@H](C)NC(=O)[C@@H](NC(=O)[C@H](CO)NC(=O)[C@H](CC(C)C)NC(=O)[C@H](Cc1c[nH]cn1)NC(=O)[C@H](CO)NC(=O)[C@H](C)NC(=O)CC[C@H](NC(=O)CCCCCCCCCCCCCCCCCCC(=O)O)C(=O)O)[C@@H](C)O)[C@@H](C)O)C(=O)N1CCC[C@H]1C(=O)N[C@@H](CO)C(=O)N[C@@H](CO)C(=O)N[C@H](C(=O)N[C@@H](CC(=O)O)C(=O)N[C@H](C(=O)NCC(=O)N1CCC[C@H]1C(=O)N[C@@H](CC(=O)O)C(=O)N[C@H](C(=O)N1CCC[C@H]1C(N)=O)[C@@H](C)O)C(C)C)[C@@H](C)O [Compound 39, N^1-[(4S)-4-carboxy-4-(19-carboxynonadecanoylamino)butanoyl]-[Ala1,Ser2,His3,Leu4,Ser5,Ala7,Gln8,Ala10,Glu14,His17,Asp21,Pro22,Pro27,Asp31,Pro34,Asp35,Pro37]-human amylin] ({C20 diacid-γGlu}-ASHLSTAQTARLAEFLHHSSDPFGAIPSSTDVGPDTP-NH2)"
2.11 pM,2.78 pM,"CC[C@H](C)[C@H](NC(=O)[C@@H]1CCCN1C(=O)CNC(=O)[C@H](Cc1ccccc1)NC(=O)[C@H](Cc1c[nH]cn1)NC(=O)[C@H](Cc1c[nH]cn1)NC(=O)[C@H](CC(C)C)NC(=O)[C@H](Cc1ccccc1)NC(=O)[C@H](CCC(=O)O)NC(=O)[C@H](C)NC(=O)[C@H](CC(C)C)NC(=O)[C@H](CCCNC(=N)N)NC(=O)[C@H](C)NC(=O)[C@@H](NC(=O)[C@H](CCC(N)=O)NC(=O)[C@H](C)NC(=O)[C@@H](NC(=O)[C@H](CO)NC(=O)[C@H](CC(C)C)NC(=O)[C@H](Cc1c[nH]cn1)NC(=O)[C@H](CO)NC(=O)[C@H](C)NC(=O)CC[C@H](NC(=O)CCCCCCCCCCCCCCCCC(=O)O)C(=O)O)[C@@H](C)O)[C@@H](C)O)C(=O)N[C@@H](CC(C)C)C(=O)N1CCC[C@H]1C(=O)N1CCC[C@H]1C(=O)N[C@H](C(=O)N[C@@H](CC(=O)O)C(=O)N[C@H](C(=O)NCC(=O)N[C@@H](CO)C(=O)N[C@@H](CCC(=O)O)C(=O)N[C@H](C(=O)N[C@@H](Cc1ccc(O)cc1)C(N)=O)[C@@H](C)O)C(C)C)[C@@H](C)O [Compound 42, N^1-[(4S)-4-carboxy-4-(17-carboxyheptadecanoylamino)butanoyl]-[Ala1,Ser2,His3,Leu4,Ser5,Ala7,Gln8,Ala10,Glu14,His17,Pro25,Pro28,Pro29,Asp31,Glu35],des-(19-22)-human amylin] ({C18 diacid-γGlu}-ASHLSTAQTARLAEFLHHFGPILPPTDVGSETY-NH2)"

# Continued, compound first:
Compound,EC50 [1],EC50 [2]
"CC[C@H](C)[C@H](NC(=O)[C@H](C)NC(=O)CNC(=O)[C@H](Cc1ccccc1)NC(=O)[C@@H]1CCCN1C(=O)[C@H](CC(=O)O)NC(=O)[C@H](CO)NC(=O)[C@H](CO)NC(=O)[C@H](Cc1c[nH]cn1)NC(=O)[C@H](Cc1c[nH]cn1)NC(=O)[C@H](CC(C)C)NC(=O)[C@H](Cc1ccccc1)NC(=O)[C@H](CCC(=O)O)NC(=O)[C@H](C)NC(=O)[C@H](CC(C)C)NC(=O)[C@H](CCCNC(=N)N)NC(=O)[C@H](C)NC(=O)[C@@H](NC(=O)[C@H](CCC(N)=O)NC(=O)[C@H](C)NC(=O)[C@@H](NC(=O)[C@H](CO)NC(=O)[C@H](CC(C)C)NC(=O)[C@H](Cc1c[nH]cn1)NC(=O)[C@H](CO)NC(=O)[C@H](C)NC(=O)CC[C@H](NC(=O)CCCCCCCCCCCCCCCCC(=O)O)C(=O)O)[C@@H](C)O)[C@@H](C)O)C(=O)N1CCC[C@H]1C(=O)N[C@@H](CO)C(=O)N[C@@H](CO)C(=O)N[C@H](C(=O)N[C@@H](CC(=O)O)C(=O)N[C@H](C(=O)NCC(=O)N1CCC[C@H]1C(=O)N[C@@H](CC(=O)O)C(=O)N[C@H](C(=O)N[C@@H](Cc1ccc(O)cc1)C(N)=O)[C@@H](C)O)C(C)C)[C@@H](C)O [Compound 37, N^1-[(4S)-4-carboxy-4-(17-carboxyheptadecanoylamino)butanoyl]-[Ala1,Ser2,His3,Leu4,Ser5,Ala7,Gln8,Ala10,Glu14,His17,Asp21,Pro22,Pro27,Asp31,Pro34,Asp35]-human amylin] ({C18 diacid-γGlu}-ASHLSTAQTARLAEFLHHSSDPFGAIPSSTDVGPDTY-NH2)",1.68 pM,2.16 pM
"CC[C@H](C)[C@H](NC(=O)[C@@H]1CCCN1C(=O)CNC(=O)[C@H](Cc1ccccc1)NC(=O)[C@H](CC(N)=O)NC(=O)[C@H](CC(=O)O)NC(=O)[C@H](CO)NC(=O)[C@H](CO)NC(=O)[C@H](Cc1c[nH]cn1)NC(=O)[C@H](Cc1c[nH]cn1)NC(=O)[C@H](CC(C)C)NC(=O)[C@H](Cc1ccccc1)NC(=O)[C@H](CCC(=O)O)NC(=O)[C@H](C)NC(=O)[C@H](CC(C)C)NC(=O)[C@H](CCCNC(=N)N)NC(=O)[C@H](C)NC(=O)[C@@H](NC(=O)[C@H](CCC(N)=O)NC(=O)[C@H](C)NC(=O)[C@@H](NC(=O)[C@H](CO)NC(=O)[C@H](CC(C)C)NC(=O)[C@H](Cc1c[nH]cn1)NC(=O)[C@H](CO)NC(=O)[C@H](C)NC(=O)CC[C@H](NC(=O)CCCCCCCCCCCCCCCCC(=O)O)C(=O)O)[C@@H](C)O)[C@@H](C)O)C(=O)N[C@@H](CC(C)C)C(=O)N1CCC[C@H]1C(=O)N1CCC[C@H]1C(=O)N[C@H](C(=O)N[C@@H](CC(=O)O)C(=O)N[C@H](C(=O)NCC(=O)N[C@@H](CO)C(=O)N[C@@H](CC(N)=O)C(=O)N[C@H](C(=O)N[C@@H](Cc1ccc(O)cc1)C(N)=O)[C@@H](C)O)C(C)C)[C@@H](C)O [Compound 38, N^1-[(4S)-4-carboxy-4-(17-carboxyheptadecanoylamino)butanoyl]-[Ala1,Ser2,His3,Leu4,Ser5,Ala7,Gln8,Ala10,Glu14,His17,Asp21,Pro25,Pro28,Pro29,Asp31]-human amylin] ({C18 diacid-γGlu}-ASHLSTAQTARLAEFLHHSSDNFGPILPPTDVGSNTY-NH2)",1.97 pM,3.15 pM
"CC[C@H](C)[C@H](NC(=O)[C@H](CCCCNC(=O)CC[C@H](NC(=O)CCCCCCCCCCCCCCCCC(=O)O)C(=O)O)NC(=O)CNC(=O)[C@H](Cc1ccccc1)NC(=O)[C@@H]1CCCN1C(=O)[C@H](CC(=O)O)NC(=O)[C@H](CO)NC(=O)[C@H](CO)NC(=O)[C@H](Cc1c[nH]cn1)NC(=O)[C@H](Cc1c[nH]cn1)NC(=O)[C@H](CC(C)C)NC(=O)[C@H](Cc1ccccc1)NC(=O)[C@H](CCC(=O)O)NC(=O)[C@H](C)NC(=O)[C@H](CC(C)C)NC(=O)[C@H](CCCNC(=N)N)NC(=O)[C@H](C)NC(=O)[C@@H](NC(=O)[C@H](CCC(N)=O)NC(=O)[C@H](C)NC(=O)[C@@H](NC(=O)[C@H](CO)NC(=O)[C@H](CC(C)C)NC(=O)[C@H](Cc1c[nH]cn1)NC(=O)[C@H](CO)NC(=O)[C@H](C)NC(C)=O)[C@@H](C)O)[C@@H](C)O)C(=O)N1CCC[C@H]1C(=O)N[C@@H](CO)C(=O)N[C@@H](CO)C(=O)N[C@H](C(=O)N[C@@H](CC(=O)O)C(=O)N[C@H](C(=O)NCC(=O)N1CCC[C@H]1C(=O)N[C@@H](CC(=O)O)C(=O)N[C@H](C(=O)N1CCC[C@H]1C(N)=O)[C@@H](C)O)C(C)C)[C@@H](C)O [Compound 40, N^1-acetyl,N{Epsilon-25}-[(4S)-4-carboxy-4-(17-carboxyheptadecanoylamino)butanoyl]-[Ala1,Ser2,His3,Leu4,Ser5,Ala7,Gln8,Ala10,Glu14,His17,Asp21,Pro22,Lys25,Pro27,Asp31,Pro34,Asp35,Pro37]-human amylin] (Ac-ASHLSTAQTARLAEFLHHSSDPFGK([γGlu-C18 diacid])IPSSTDVGPDTP-NH2)",1.38 pM,1.29 pM
